Measured values reported in US4914191A, “Anthracycline derivatives having cytostatic activity” (Behringwerke Aktiengesellschaft, priority 1987, dated 1990).
≈ marks a conversion by molar mass, not a printed value. Where two headings read alike, the source gives them in different places.

Tests used:
[1] = system: L1210 mouse leukemia cells; test: formation of colonies of L1210 leukemia cells in soft agar; format: cell-based; conditions: Mus musculus
Experimental: The cytostatic activity of the compounds according to the invention was tested using L1210 mouse leukemia cells. This made use of the formation of colonies of L1210 leukemia cells in agar plates. This method is used to detect the effect of the test substances on the growth behavior of the cells over 1 hour or over several generations. With a cell cycle lasting 10-12 hours, this means that about 14 consecutive generations are observed in a test lasting 7 days. In this test, the substances having cytostatic activity according to the invention bring about a reduction in the number of colonies to be observed by comparison with an untreated control sample.
500 leukemia cells per plate were incubated with various concentrations of the test substance at 37° C. for 1 hour. These cells were then washed twice with McCoy5A medium and finally, after addition of 0.3% agar, poured into Petri dishes. Controls were incubated only with fresh medium. In some cases, in place of the incubation for one hour, various concentrations of test substances were mixed with the upper agar layer in order in this way to achieve continuous exposure of the cells throughout the incubation time. After the agar had solidified, the plates were incubated at 37° C. in an incubator for 7 days (5% by vol. CO2, 95% relative humidity). The number of colonies with a diameter of more than 60 μm which had formed was then counted. The results have been given as the number of colonies in treated agar plates as a percentage of the untreated control. The IC50 was determined, as a measure of the activity of the substance, from the dose-effect plot obtained in this way.

[2] = approximative toxicity, intraperitoneal (LD50); conditions: in vivo, ip
Description: *3xip,q3d: three intraperitoneal administrations with an interval of thre
1xip: one intraperitoneal administration

L1210 leukemia cells = test: cross-resistance in vitro, MTT assay on sensitive and adriamycin (doxorubicin)-resistant L1210 leukemia cells; format: cell-based, mouse; conditions: 3d incubation; for Degree of resistance of the cell: IC50 resistant subline relative to IC50 sensitive line
Experimental: L1210, A 549 or HT 29 in the exponential phase of growth are incubated in a cell density of 5×10^3 cells/ml in RPMI 1640 in a 96-well microtiter plate for 72 hours with various concentrations of the test substance at 37° C., 5% CO2 and 95% relative humidity. Control experiments contain merely growth medium in place of the test substance. Each test substance and the control are determined in quadruplicate. After incubation for 65 hours, 50 μl of MTT solution (2.5 mg/ml in phosphate-buffered saline) are added. In the presence of live cells, MTT is reduced to a dark-red insoluble formazan dyestuff. This reaction is complete after 7 hours (L1210 cells) or after 24 hours (A 549, HT 29 cells), and the supernatant medium is carefully removed by aspiration. The insoluble dyestuff is dissolved by addition of 100 μl of DMSO, and the extinction of the resulting solution at a wavelength of 492 nm is then measured for each well in a Flow 340 CC multiscan photometer.
The ratio of the extinctions of treated and untreated cells yields a dose-effect plot from which the concentration which just kills 50% of the cells (IC50) can be read off. The coefficient of variation for repeat tests is less than 15%.
The cross-resistance between the particular test compound and doxorubicin is determined using the MTT assay (for method, see above) on sensitive and resistant L1210 leukemia cells.
The resistant cell line was established by incubation of a sensitive subline with stepwise increasing concentrations of the reference compound.
The IC50 of the test compound on the resistant subline relative to the IC50 of the sensitive subline yields the degree of resistance both for the test compound (DR(T)) and for the reference compound (DR(R)) in accordance with the formula [formula]
In addition, the degree of cross-resistance (DCR) for the test compound is calculated in accordance with the formula [formula]
In the case where the loss of activity of the test compound on the resistant line related to the sensitive line is greater than that of the reference compound, a degree of cross-resistance of more than 100% is possible.

[3] = L1210, 168 h, read-out: Long-term incubation IC50, continuous exposure, 7 days, L1210 colony formation
[4] = L1210, read-out: 1 h Incubation IC50, 1 h incubation, then 7 days colony formation, L1210
[5] = 168 h, continuous exposure, 7 days, L1210 colony formation, read-out: Long-term incubation IC50
[6] = 1 h incubation, then 7 days colony formation, L1210, read-out: 1 h Incubation IC50
[7] = one intraperitoneal administration, read-out: Approximative toxicity LD50, 1xip

Compound: CC[C@@]1(O)C[C@H](O[C@H]2C[C@H](N(C)C)[C@H](OC(=O)c3ccc(C#N)cc3)[C@H](C)O2)c2c(O)c3c(c(O)c2[C@H]1O[C@H]1C[C@H](N(C)C)[C@H](OC(=O)c2ccc(C#N)cc2)[C@H](C)O1)C(=O)c1cccc(O)c1C3=O [Compound 5, 7,10-O-Bis-(4'-O-p-cyanobenzoyl-α-L-rhodosaminyl)-β-rhodomycinon]
- IC50 [1, 3]: 0.105 µg/mL (≈ 0.109 µM)
- IC50 [1, 4]: > 1 µg/mL

Compound: CC[C@@]1(O)C[C@H](O[C@H]2C[C@H](N(C)C)[C@H](OC(=O)c3ccc(OC)cc3)[C@H](C)O2)c2c(O)c3c(c(O)c2[C@H]1O[C@H]1C[C@H](N(C)C)[C@H](O)[C@H](C)O1)C(=O)c1cccc(O)c1C3=O [Compound 12a, 7-O-[(4'-O-p-methoxybenzoyl)-α-L-rhodosaminyl]-10-O-α-L-rhodosaminyl-β-rhodomycinone]
- IC50 [1, 5]: 0.0085 µg/mL (≈ 0.0102 µM)
- IC50 [1, 6]: 0.13 µg/mL (≈ 0.156 µM)
- LD50 ([2]; three intraperitoneal administrations with an interval of three days between each, read-out: Approximative toxicity LD50, 3xip, q3d): 10 to 15 mg/kg
- Degree of cross-resistance to adriamycin (L1210 leukemia cells): 1.3%
- Degree of resistance of the cell (L1210 leukemia cells): 0.75

Compound: CC[C@@]1(O)C[C@H](O[C@H]2C[C@H](N(C)C)[C@H](OC(=O)c3ccc(OC)cc3)[C@H](C)O2)c2c(O)c3c(c(O)c2[C@H]1O)C(=O)c1cccc(O)c1C3=O [Compound 18, 7-O-(4'-O-p-Methoxybenzoyl-α-L-rhodosaminyl)-β-rhodomycinone]
- IC50 [1, 5]: 0.075 µg/mL (≈ 0.111 µM)
- IC50 [1, 6]: 0.66 µg/mL (≈ 0.974 µM)
- LD50 [2, 7]: 10 to 50 mg/kg

Compound: CC[C@@]1(O)C[C@H](O[C@H]2C[C@H](N(C)C)[C@H](OC(=O)c3ccccc3)[C@H](C)O2)c2c(O)c3c(c(O)c2[C@H]1O)C(=O)c1cccc(O)c1C3=O [Compound 17, 7-O-(4'-O-benzoyl-α-L-rhodosaminyl)-β-rhodomycinone]
- IC50 [1, 5]: 0.12 µg/mL (≈ 0.185 µM)
- IC50 [1, 6]: 0.9 µg/mL (≈ 1.39 µM)
- LD50 [2, 7]: 1 to 10 mg/kg

Compound: CC[C@@]1(O)C[C@H](O[C@H]2C[C@H](N(C)C)[C@H](OC(=O)c3ccc(Br)cc3)[C@H](C)O2)c2c(O)c3c(c(O)c2[C@H]1O[C@H]1C[C@H](N(C)C)[C@H](OC(=O)c2ccc(Br)cc2)[C@H](C)O1)C(=O)c1cccc(O)c1C3=O [Compound 8, 7,10-O-Bis-(4'-O-p-bromobenzoyl-α-L-rhodosaminyl)-β-rhodomycinone]
- IC50 [1, 3]: 0.3 µg/mL (≈ 0.281 µM)
- IC50 [1, 4]: > 10 µg/mL

Compound: CC[C@@]1(O)C[C@H](O[C@H]2C[C@H](N(C)C)[C@H](OC(C)=O)[C@H](C)O2)c2c(O)c3c(c(O)c2[C@H]1O)C(=O)c1cccc(O)c1C3=O [Compound 21, 7-O-(4'-O-Acetyl-α-L-rhodosaminyl)-β-rhodomycinone]
- IC50 [1, 5]: 0.08 µg/mL (≈ 0.137 µM)
- IC50 [1, 6]: 0.7 µg/mL (≈ 1.2 µM)
- LD50 [2, 7]: 1 to 10 mg/kg
- Degree of cross-resistance to adriamycin (L1210 leukemia cells): 2.4%
- Degree of resistance of the cell (L1210 leukemia cells): 2.2

Compound: CC[C@@]1(O)C[C@H](O[C@H]2C[C@H](N(C)C)[C@H](OC(C)=O)[C@H](C)O2)c2c(O)c3c(c(O)c2[C@H]1O[C@H]1C[C@H](N(C)C)[C@H](OC(C)=O)[C@H](C)O1)C(=O)c1cccc(O)c1C3=O [Compound 9, 7,10-O-Bis-(4'-O-acetyl-α-L-rhodosaminyl)-β-rhodomycinone]
- IC50 [1, 5]: 0.026 µg/mL (≈ 0.0331 µM)
- IC50 [1, 6]: 0.06 µg/mL (≈ 0.0764 µM)
- LD50 [2, 7]: 3.4 to 6.5 mg/kg
- Degree of cross-resistance to adriamycin (L1210 leukemia cells): 6.0%
- Degree of resistance of the cell (L1210 leukemia cells): 6.0

Compound: CCC(=O)O[C@@H]1[C@H](C)O[C@@H](O[C@H]2C[C@](O)(CC)[C@H](O[C@H]3C[C@H](N(C)C)[C@H](OC(=O)CC)[C@H](C)O3)c3c(O)c4c(c(O)c32)C(=O)c2c(O)cccc2C4=O)C[C@@H]1N(C)C [Compound 10, 7,10-O-Bis-(4'-O-propionyl-α-L-rhodosaminyl)-β-rhodomycinone]
- IC50 [1, 5]: 0.12 µg/mL (≈ 0.148 µM)
- IC50 [1, 6]: 0.25 µg/mL (≈ 0.308 µM)
